# Test results taken from patent US10392398B2, “Inhibitors of Late SV40 Factor (LSF) as cancer chemotherapeutics” (TRUSTEES OF BOSTON UNIVERSITY, priority 2010, dated 2019).
# Values joined by “and” are separate entries in the source; they are usually repeats but may differ in a detail not shown here. Equal entries are not always repeated. Where two headings read alike, the source gives them in different places.
# Experiments:
# GRHL1 = target: T1, GRHL1 (Homo sapiens, UniProt Q9NZI5); test: Cellular Thermal Shift Assay (CETSA), GRHL1; format: binding; conditions: QGY-7703 lysate, 500 μM
# T1 construct: endogenous in cells; host or cells: QGY-7703 cell lysate
# T1 sequence (Q9NZI5 1-618): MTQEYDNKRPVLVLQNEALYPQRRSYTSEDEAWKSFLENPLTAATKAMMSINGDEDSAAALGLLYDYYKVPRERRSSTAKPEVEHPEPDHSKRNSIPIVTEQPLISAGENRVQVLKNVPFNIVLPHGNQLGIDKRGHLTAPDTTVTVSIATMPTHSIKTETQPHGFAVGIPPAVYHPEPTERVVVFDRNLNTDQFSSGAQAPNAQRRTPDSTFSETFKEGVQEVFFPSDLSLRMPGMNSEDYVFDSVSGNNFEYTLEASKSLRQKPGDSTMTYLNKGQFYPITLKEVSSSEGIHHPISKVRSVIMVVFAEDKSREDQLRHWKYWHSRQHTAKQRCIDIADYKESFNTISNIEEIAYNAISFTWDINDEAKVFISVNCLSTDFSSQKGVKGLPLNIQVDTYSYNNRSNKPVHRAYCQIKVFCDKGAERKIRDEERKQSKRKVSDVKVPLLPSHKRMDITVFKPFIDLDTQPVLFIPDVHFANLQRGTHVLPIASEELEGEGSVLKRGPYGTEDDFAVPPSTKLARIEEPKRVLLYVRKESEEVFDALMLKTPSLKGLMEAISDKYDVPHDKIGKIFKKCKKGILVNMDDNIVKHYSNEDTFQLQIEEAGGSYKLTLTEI
# Description: Drug-target engagement was assessed using CETSA as described by Molina et al. (Monitoring Drug-Target Engagement in Cells and Tissues Using Cellular Thermal Shift Assay. Science (2013) 341, 84-87). QGY-7703 cells were cultured at 37° C. in 5% CO2 in DMEM (Dulbecco's modification of Eagle's Medium; Corning) supplemented with 10% Fetal Bovine Serum (FBS; Invitrogen). Cells were seeded into 10 cm plates and allowed to reach 60-80% confluency. After trypsinization (0.05% Trypsin-EDTA, Invitrogen), cell pellet was washed twice with ice-cold 1×PBS (137 mM NaCl, 2.7 mM KCl, 10 mM Na2HPO4, 2 mM KH2PO4, pH 7.2). Cell pellet was lysed by addition of 200 μL freshly prepared ice-cold RIPA buffer (10 mM Tris-Cl pH 8.0, 1 mM EDTA, 0.5 mM EGTA, 1% Triton X-100, 0.1% sodium deoxycholate, 0.1% SDS, 140 mM NaCl) supplemented with 1 mM Pefabloc (Sigma-Aldrich), and flash frozen in liquid nitrogen and thawed for a total of three cycles. Cell lysate was centrifuged at 20,000×g for 20 minutes to clarify. Supernatant was either treated immediately or saved at −80° C. for future use. […]
# Immunoblots were quantified using Image J and graphed using GraphPad PRISM. Area-under-the-curve (AUC) for the quantified western blots were calculated with GraphPad PRISM and non-parametric t-test was calculated to determine statistical significance between the curves. […]
# [1] = Pharmacokinetic analysis in rat plasma; format: in vivo; conditions: for Vd: read-out: VDss; for bioavailability: read-out: % Bioavailability F
# Description: The purpose of the study was to measure the concentration of FQI-34 in rat plasma samples. The study was performed under non-GLP conditions. All work was performed with appropriate local health regulation and ethical approval. Plasma samples were taken at 0.08, 0.25, 0.5, 1, 2, 4, 8, and 24 hours. Plasma samples were crashed with three volumes of methanol containing an analytical internal standard (propranolol/bucetin/diclofenac). Samples were then centrifuged to remove precipitated protein, and the supernatant was analyzed by LC-MS/MS using a Waters Xevo TQ mass spectrometer coupled with an Acuity HPLC and a CTC PAL chilled autosampler, all controlled by MassLynx software (Waters). The analyte signal was optimized prior to analysis. After separation on a C18 reverse phase HPLC column (Waters Acquity HSS T3 2.1×50 mm 1.8 μM) using an acetonitrile-water gradient system, peaks were analyzed by mass spectrometry (MS) using ESI ionization in MRM mode. All plasma samples were compared to a calibration curve prepared in rat blank plasma.
# Male Sprague-Dawley rats were obtained from a commercial source and housed in an AAALAC-approved facility until dosing. For IV dosing, FQI-34 was dissolved in 10% ethanol/16% PEG-400/74% saline at 0.4 mg/mL and in a 1% methylcellulose/0.5% Tween-80 suspension at 10 mg/mL for PO dosing. Three rats per group were dosed by a single IV bolus (10 mL/kg) or PO (10 mL/kg).
# Plasma PK-parameters were independently verified and interpreted using PK-solver: An Excel add-In (Zhang, Y. et al. PKSolver: An add-in program for pharmacokinetic and pharmacodynamic data analysis in Microsoft Excel. Comput. Methods Programs Biomed. (2010) 99, 306-314), via a non-compartmental analysis using the linear-trapezoidal method (Fan, J. Pharmacokinetics. Biochemical Pharmacology (2014) 87, 93-120).
# [2] = male, Sprague-Dawley, rat, plasma, iv, 4 mg/kg, rat plasma, IV 4 mg/kg, AVERAGE
# [3] = male, Sprague-Dawley, rat, plasma, iv, 4 mg/kg, rat plasma, IV 4 mg/kg, individual rats A, B, C
# [4] = rat plasma, IV 4 mg/kg, individual rats A, B, C, 4 mg/kg
# [5] = rat plasma, PO 100 mg/kg, individual rats A, B, C, 100 mg/kg
# [6] = rat, IV 4 mg/kg, individual rats A, B, C, 4 mg/kg
smiles,measurement,setting,value
"CCOc1cc(N(C)C)ccc1C1CC(=O)Nc2cc3c(cc21)OCO3 (stereo not shown) [FQI-34, 8-(4-(dimethylamino)-2-ethoxyphenyl)-7,8-dihydro-[1,3]dioxolo[4,5-g]quinolin-6(5H)-one]",binding to GRHL1 by CETSA,GRHL1,does not bind
same,clearance,"[1]; male, Sprague-Dawley, rat, plasma, iv, 4 mg/kg, IV 4 mg/kg, AVERAGE",73 mL/min/kg
same,clearance,"[1]; male, Sprague-Dawley, rat, plasma, iv, 4 mg/kg, IV 4 mg/kg, individual rats A, B, C",65 mL/min/kg
same,AUC(0-inf),[1]; [2],935 ng·h/mL
same,half-life,[1]; [2],48.6 min
same,C0,"[1]; male, Sprague-Dawley, rat, plasma, iv, 4 mg/kg, rat plasma, IV 4 mg/kg, AVERAGE, read-out: C0",423 ng/mL
same,Cmax,"[1]; male, Sprague-Dawley, rat, plasma, iv, 4 mg/kg, rat plasma, IV 4 mg/kg, AVERAGE, read-out: Cmax",552 ng/mL
same,Tmax,"[1]; male, Sprague-Dawley, rat, plasma, iv, 4 mg/kg, rat plasma, IV 4 mg/kg, AVERAGE, read-out: Tmax",25.2 min
same,AUC(0-inf),[1]; [3],1020 ng·h/mL
same,half-life,[1]; [3],43.8 min
same,C0,"[1]; male, Sprague-Dawley, rat, plasma, iv, 4 mg/kg, rat plasma, IV 4 mg/kg, individual rats A, B, C, read-out: C0",434 ng/mL
same,Cmax,"[1]; male, Sprague-Dawley, rat, plasma, iv, 4 mg/kg, rat plasma, IV 4 mg/kg, individual rats A, B, C, read-out: Cmax",545 ng/mL
same,Tmax,"[1]; male, Sprague-Dawley, rat, plasma, iv, 4 mg/kg, rat plasma, IV 4 mg/kg, individual rats A, B, C, read-out: Tmax",30 min
same,Vd,"[1]; male, Sprague-Dawley, rat, plasma, iv, 4 mg/kg, rat, IV 4 mg/kg, AVERAGE",5.1 L/kg
same,Vd,"[1]; male, Sprague-Dawley, rat, plasma, iv, 4 mg/kg, rat, IV 4 mg/kg, individual rats A, B, C",4.6 L/kg
same,AUC(0-inf),"[1]; male, Sprague-Dawley, rat, plasma, po, 100 mg/kg, rat plasma, PO 100 mg/kg, AVERAGE",4960 ng·h/mL
same,Cmax,"[1]; male, Sprague-Dawley, rat, plasma, po, 100 mg/kg, rat plasma, PO 100 mg/kg, AVERAGE, read-out: Cmax",526 ng/mL
same,Tmax,"[1]; male, Sprague-Dawley, rat, plasma, po, 100 mg/kg, rat plasma, PO 100 mg/kg, AVERAGE, read-out: Tmax",162 min
same,AUC(0-inf),"[1]; male, Sprague-Dawley, rat, plasma, po, 100 mg/kg, rat plasma, PO 100 mg/kg, individual rats A, B, C",4900 ng·h/mL
same,Cmax,"[1]; male, Sprague-Dawley, rat, plasma, po, 100 mg/kg, rat plasma, PO 100 mg/kg, individual rats A, B, C, read-out: Cmax",500 ng/mL
same,Tmax,"[1]; male, Sprague-Dawley, rat, plasma, po, 100 mg/kg, rat plasma, PO 100 mg/kg, individual rats A, B, C, read-out: Tmax",240 min
same,bioavailability,"[1]; male, Sprague-Dawley, rat, plasma, po, 100 mg/kg, rat, PO 100 mg/kg, AVERAGE",21%
same,bioavailability,"[1]; male, Sprague-Dawley, rat, plasma, po, 100 mg/kg, rat, PO 100 mg/kg, individual rats A, B, C",21%
same,AUC(0-∞),[1]; [4],759 ng·h/mL and 1028 ng·h/mL
same,C0,[1]; [4],446 ng/mL and 390 ng/mL
same,Cmax,[1]; [4],548 ng/mL and 564 ng/mL
same,T1/2,[1]; [4],43.2 min and 59.4 min
same,Tmax,[1]; [4],15 min
same,AUC(0-∞),[1]; [5],4026 ng·h/mL and 5936 ng·h/mL
same,Cmax,[1]; [5],501 ng/mL and 577 ng/mL
same,Tmax,[1]; [5],120 min
same,CL,[1]; [6],88 mL/min/kg
same,VDss,[1]; [6],5.4 L/kg and 5.3 L/kg
same,% Bioavailability F,"[1]; rat, PO 100 mg/kg, individual rats A, B, C, 100 mg/kg",17% and 25%
